PubChem BioAssay AID1918953 (Molecular Pharmacology Branch, DTP, NCI, 2023)

System: MDA-MB-231 complex spheroid viability
Experiment: Anticancer human tumor MDA-MB-231/ATCC cell line growth inhibition;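 note: drug exposure lasted 7 days starting on day 3 of spheroid growth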
Details: for IC50: curve of first compound; for viability, T/C: stronger effect = lower value
Summary of the method: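 Complex spheroids of tumor cells with HUVEC and human MSCs, exposed to iadademstat combined with other agents. Each agent tested in half-log steps from near clinical Cmax (else 10 microM top), DMSO ≤0.25%.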

[1] = second compound 0.1 µM, first compound 0.0316 µM
[2] = second compound 0.1 µM, first compound 0.1 µM
[3] = second compound 0.1 µM, first compound 0.316 µM
[4] = second compound 0.1 µM, first compound 1 µM
[5] = second compound 0.1 µM, first compound 3.16 µM
[6] = second compound 0.1 µM, first compound 10 µM
[7] = second compound 0.316 µM, first compound 0.0316 µM
[8] = second compound 0.316 µM, first compound 0.1 µM
[9] = second compound 0.316 µM, first compound 0.316 µM
[10] = second compound 0.316 µM, first compound 1 µM
[11] = second compound 0.316 µM, first compound 3.16 µM
[12] = second compound 0.316 µM, first compound 10 µM
[13] = second compound 1 µM, first compound 0.0316 µM
[14] = second compound 1 µM, first compound 0.1 µM
[15] = second compound 1 µM, first compound 0.316 µM
[16] = second compound 1 µM, first compound 1 µM
[17] = second compound 1 µM, first compound 3.16 µM
[18] = second compound 1 µM, first compound 10 µM
[19] = second compound 3.16 µM, first compound 0.0316 µM
[20] = second compound 3.16 µM, first compound 0.1 µM
[21] = second compound 3.16 µM, first compound 0.316 µM
[22] = second compound 3.16 µM, first compound 1 µM
[23] = second compound 3.16 µM, first compound 3.16 µM
[24] = second compound 3.16 µM, first compound 10 µM
[25] = second compound 10 µM, first compound 0.0316 µM
[26] = second compound 10 µM, first compound 0.1 µM
[27] = second compound 10 µM, first compound 0.316 µM
[28] = second compound 10 µM, first compound 1 µM
[29] = second compound 10 µM, first compound 3.16 µM
[30] = second compound 10 µM, first compound 10 µM
[31] = second compound 0.1 µM, first compound 0.00316 µM
[32] = second compound 0.1 µM, first compound 0.01 µM
[33] = second compound 0.316 µM, first compound 0.00316 µM
[34] = second compound 0.316 µM, first compound 0.01 µM
[35] = second compound 1 µM, first compound 0.00316 µM
[36] = second compound 1 µM, first compound 0.01 µM
[37] = second compound 3.16 µM, first compound 0.00316 µM
[38] = second compound 3.16 µM, first compound 0.01 µM
[39] = second compound 10 µM, first compound 0.00316 µM
[40] = second compound 10 µM, first compound 0.01 µM

CC1COCCN1c1cc(C2(S(C)(=N)=O)CC2)nc(-c2ccnc3[nH]ccc23)n1 (stereo not given) + NC1CCC(NC2CC2c2ccccc2)CC1
IC50 (second compound 0.1 µM): 1180 nM
IC50 (second compound 0.316 µM): 1460 nM
IC50 (second compound 1 µM): 1530 nM
IC50 (second compound 3.16 µM): 1180 nM
IC50 (second compound 10 µM): 1010 nM
viability, T/C [1]: 103%
viability, T/C [2]: 99.2%
viability, T/C [3]: 82.5%
viability, T/C [4]: 51.1%
viability, T/C [5]: 38.1%
viability, T/C [6]: 29.4%
viability, T/C [7]: 111%
viability, T/C [8]: 109%
viability, T/C [9]: 81.6%
viability, T/C [10]: 59.2%
viability, T/C [11]: 34.9%
viability, T/C [12]: 29.3%
viability, T/C [13]: 109%
viability, T/C [14]: 100%
viability, T/C [15]: 79.5%
viability, T/C [16]: 56%
viability, T/C [17]: 40%
viability, T/C [18]: 30.3%
viability, T/C [19]: 95%
viability, T/C [20]: 87%
viability, T/C [21]: 69.7%
viability, T/C [22]: 53%
viability, T/C [23]: 37.9%
viability, T/C [24]: 33.3%
viability, T/C [25]: 72.4%
viability, T/C [26]: 68.2%
viability, T/C [27]: 59.5%
viability, T/C [28]: 48.1%
viability, T/C [29]: 42.4%
viability, T/C [30]: 32.3%

CC(C)c1c(-c2ccccc2)nc2c(C#N)c[nH]n2c1=O + NC1CCC(NC2CC2c2ccccc2)CC1
IC50 (second compound 0.1 µM): > 10000 nM
IC50 (second compound 0.316 µM): > 10000 nM
IC50 (second compound 1 µM): > 10000 nM
IC50 (second compound 3.16 µM): > 10000 nM
IC50 (second compound 10 µM): > 10000 nM
viability, T/C [1]: 108%
viability, T/C [2]: 108%
viability, T/C [3]: 101%
viability, T/C [4]: 102%
viability, T/C [5]: 105%
viability, T/C [6]: 103%
viability, T/C [7]: 109%
viability, T/C [8]: 106%
viability, T/C [9]: 106%
viability, T/C [10]: 111%
viability, T/C [11]: 110%
viability, T/C [12]: 104%
viability, T/C [13]: 101%
viability, T/C [14]: 100%
viability, T/C [15]: 102%
viability, T/C [16]: 109%
viability, T/C [17]: 106%
viability, T/C [18]: 103%
viability, T/C [19]: 86.6%
viability, T/C [20]: 90.4%
viability, T/C [21]: 87.6%
viability, T/C [22]: 88.5%
viability, T/C [23]: 94.2%
viability, T/C [24]: 87.3%
viability, T/C [25]: 64.5%
viability, T/C [26]: 69.2%
viability, T/C [27]: 70.2%
viability, T/C [28]: 73.7%
viability, T/C [29]: 71.1%
viability, T/C [30]: 66.5%

Nc1ncn(C2CC(O)C(CO)O2)c(=O)n1 (stereo not given) + NC1CC1c1ccc(-c2cccc(O)c2)cc1
IC50 (second compound 0.1 µM): > 1000 nM
IC50 (second compound 0.316 µM): 560 nM
IC50 (second compound 1 µM): 183 nM
IC50 (second compound 3.16 µM): 251 nM
IC50 (second compound 10 µM): < 3.16 nM
viability, T/C [31]: 74.5%
viability, T/C [32]: 75.8%
viability, T/C [1]: 76.2%
viability, T/C [2]: 66.8%
viability, T/C [3]: 55%
viability, T/C [4]: 56%
viability, T/C [33]: 70.4%
viability, T/C [34]: 63.5%
viability, T/C [7]: 61.4%
viability, T/C [8]: 51.8%
viability, T/C [9]: 50.9%
viability, T/C [10]: 49.6%
viability, T/C [35]: 60.5%
viability, T/C [36]: 58.4%
viability, T/C [13]: 57.3%
viability, T/C [14]: 50.4%
viability, T/C [15]: 47.7%
viability, T/C [16]: 45%
viability, T/C [37]: 70.2%
viability, T/C [38]: 63.4%
viability, T/C [19]: 60.6%
viability, T/C [20]: 53.3%
viability, T/C [21]: 49.6%
viability, T/C [22]: 43.7%
viability, T/C [39]: 49.7%
viability, T/C [40]: 45.3%
viability, T/C [25]: 43.9%
viability, T/C [26]: 41.5%
viability, T/C [27]: 40.3%
viability, T/C [28]: 37.1%

Cn1ncnc1C1c2n[nH]c(=O)c3cc(F)cc(c23)NC1c1ccc(F)cc1 (stereo not given) + NC1CCC(NC2CC2c2ccccc2)CC1
IC50 (second compound 0.1 µM): > 100 nM
IC50 (second compound 0.316 µM): > 100 nM
IC50 (second compound 1 µM): > 100 nM
IC50 (second compound 3.16 µM): > 100 nM
IC50 (second compound 10 µM): < 0.316 nM
viability, T/C (second compound 0.1 µM, first compound 0.000316 µM): 95.7%
viability, T/C (second compound 0.1 µM, first compound 0.001 µM): 97.2%
viability, T/C [31]: 92.5%
viability, T/C [32]: 81.9%
viability, T/C [1]: 80.4%
viability, T/C [2]: 78.7%
viability, T/C (second compound 0.316 µM, first compound 0.000316 µM): 95.4%
viability, T/C (second compound 0.316 µM, first compound 0.001 µM): 95.6%
viability, T/C [33]: 84.6%
viability, T/C [34]: 80.7%
viability, T/C [7]: 77.7%
viability, T/C [8]: 75.2%
viability, T/C (second compound 1 µM, first compound 0.000316 µM): 92.3%
viability, T/C (second compound 1 µM, first compound 0.001 µM): 89.9%
viability, T/C [35]: 87.8%
viability, T/C [36]: 81.3%
viability, T/C [13]: 72.2%
viability, T/C [14]: 70.7%
viability, T/C (second compound 3.16 µM, first compound 0.000316 µM): 70.8%
viability, T/C (second compound 3.16 µM, first compound 0.001 µM): 68.9%
viability, T/C [37]: 64.5%
viability, T/C [38]: 60.4%
viability, T/C [19]: 59.1%
viability, T/C [20]: 60.9%
viability, T/C (second compound 10 µM, first compound 0.000316 µM): 48.3%
viability, T/C (second compound 10 µM, first compound 0.001 µM): 50.3%
viability, T/C [39]: 48.9%
viability, T/C [40]: 42.2%
viability, T/C [25]: 45.9%
viability, T/C [26]: 44.6%
